Experiment [1] has as its target T1, Neurotensin receptor type 1 (Homo sapiens, UniProt P30989). In words: Displacement of [3H]neurotensin from human NTSR1 expressed in CHO cell membranes by radioligand depletion assay. On the set-up: species or system Cell membrane. In general terms: In a radioligand displacement assay an active substance lowers the binding of a labelled ligand.
Target sequence in this assay (P30989 whole entry): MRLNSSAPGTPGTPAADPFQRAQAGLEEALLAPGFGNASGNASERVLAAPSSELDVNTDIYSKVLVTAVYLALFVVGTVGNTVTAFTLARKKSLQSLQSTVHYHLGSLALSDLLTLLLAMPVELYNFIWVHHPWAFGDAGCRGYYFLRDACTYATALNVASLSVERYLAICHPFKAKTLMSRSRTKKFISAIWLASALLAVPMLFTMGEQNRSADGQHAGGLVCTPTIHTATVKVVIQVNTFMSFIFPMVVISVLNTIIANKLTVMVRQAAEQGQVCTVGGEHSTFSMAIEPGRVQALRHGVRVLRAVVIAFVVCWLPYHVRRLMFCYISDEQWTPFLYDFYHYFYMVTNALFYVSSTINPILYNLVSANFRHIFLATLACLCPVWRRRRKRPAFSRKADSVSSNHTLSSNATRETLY
For experiment [2], the target named is Neurotensin receptor type 2 (Homo sapiens, UniProt O95665). In words: Displacement of [3H]NT(8-13) from human NTSR2 expressed in HEK293 cell membranes by radioligand displacement assay. Also noted: species or system Cell membrane.
Neurotensin receptor type 2, sequence (O95665 whole entry): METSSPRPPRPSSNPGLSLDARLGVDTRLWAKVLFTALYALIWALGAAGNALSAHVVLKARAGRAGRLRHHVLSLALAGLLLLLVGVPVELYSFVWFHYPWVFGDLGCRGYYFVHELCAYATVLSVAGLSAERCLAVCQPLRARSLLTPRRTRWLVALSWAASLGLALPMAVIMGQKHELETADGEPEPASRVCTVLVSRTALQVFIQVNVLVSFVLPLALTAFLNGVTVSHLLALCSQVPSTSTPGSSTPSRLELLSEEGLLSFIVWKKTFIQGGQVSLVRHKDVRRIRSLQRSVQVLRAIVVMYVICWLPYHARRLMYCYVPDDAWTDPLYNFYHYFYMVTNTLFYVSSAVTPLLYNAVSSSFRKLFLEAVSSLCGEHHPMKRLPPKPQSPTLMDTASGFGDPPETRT
For experiment [3], the target named is T1, Neurotensin receptor type 1. Briefly: Displacement of [3H]NT(8-13) from human NTSR1 F2.65C mutant expressed in HEK293 cell membranes assessed as amount of blocking at 1 uM incubated for 120 mins by radioligand depletion assay. As to conditions: Cell membrane.
Target sequence in this assay (P30989 whole entry): as the sequence (P30989 whole entry) above
For experiment [4] the target is unchanged. Briefly: Displacement of [3H]NT(8-13) from human NTSR1 F2.65C mutant expressed in HEK293 cell membranes by radioligand displacement assay. Also noted: species or system Cell membrane.
Target sequence in this assay (P30989 whole entry, looked up): as the sequence (P30989 whole entry) above

*1 amine or outer side, *2 acyl side, *3 side chain or, on linkers, in order; H or OH if unused. Where a SMILES comes first, the peptide text is derived from it. Cysteamine = C(CS[*:2])N[*:1]

The term Ki denotes the dissociation constant of the complex between target and ligand, obtained from inhibition or displacement. Consider `CC[C@H](C)[C@H](NC(=O)[C@H](Cc1ccc(O)cc1)NC(=O)[C@@H]1CCCN1C(=O)[C@H](CCCNC(=N)N)NC(=O)[C@@H](N)CCCNC(=N)N)C(=O)N[C@@H](CC(C)C)C(=O)N[C@H](CCSSCCN)C(=O)O`, for which the results for the Ki in experiment [1] (cho), in experiment [2] and in experiment [4] were 7 nM, 5.2 nM and 40 nM, respectively. Also, the Activity in experiment [3] was -2%.
Take `CC[C@H](C)[C@H](NC(=O)[C@H](Cc1ccc(O)cc1)NC(=O)[C@@H]1CCCN1C(=O)[C@H](CCCNC(=N)N)NC(=O)[C@@H](N)CCCNC(=N)N)C(=O)N[C@@H](CC(C)C)C(=O)N[C@@H](CSSCCN)C(=O)O` (H-RRPYILC(Cysteamine)-OH): the Ki in experiment [1] is 2.4 nM; in experiment [2], 4.2 nM; in experiment [4] it was 51 nM. Besides, the Activity in experiment [3] is 6%.
In the case of `CC(C)C[C@H](NC(=O)[C@@H](CCSSCCN)NC(=O)[C@H](Cc1ccc(O)cc1)NC(=O)[C@@H]1CCCN1C(=O)[C@H](CCCNC(=N)N)NC(=O)[C@@H](N)CCCNC(=N)N)C(=O)O`, the inhibition constant (Ki) in experiment [1] (cho) is 5.3 nM; in experiment [2], 17 nM; in experiment [4], 15 nM. Besides, the Activity in experiment [3] turned out to be 88%.
Take `CC(C)C[C@H](NC(=O)[C@H](CSSCCN)NC(=O)[C@H](Cc1ccc(O)cc1)NC(=O)[C@@H]1CCCN1C(=O)[C@H](CCCNC(=N)N)NC(=O)[C@@H](N)CCCNC(=N)N)C(=O)O`: the inhibitory constant (Ki) was found to be 49 nM in experiment [1], 55 nM in experiment [2] and 28 nM in experiment [4]. The Activity in experiment [3] turned out to be 61%.

These data come from ChEMBL document CHEMBL5143643, “Development of disulfide-functionalized peptides covalently binding G protein-coupled receptors” (Bioorg Med Chem, 2022).
